Test [1] has as its target T1, P2Y receptor (turkey erythrocyte membranes) (Meleagris gallopavo, UniProt P49652).
T1 construct: from tissue; host or cells: washed turkey erythrocytes, ghosts prepared by hypotonic lysis
Description: Stimulation of phospholipase C (inositol phosphate formation) in turkey erythrocyte membranes. Format: biochemical. The essentials: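 Erythrocytes were labelled 18-24 h at 37 °C with [3H]myoinositol, and ghosts were made by hypotonic lysis. Ghosts (≈175 μg protein) were incubated 5 min at 30 °C in Hepes buffer pH 7.0 with 1 μM GTPγS and nucleotide analogs. Total [3H]inositol phosphates were purified by anion exchange; K0.5 averaged from 3-8 dose-response curves.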

For test [2], the target named is T2, P2Y receptor (taenia coli) (Cavia porcellus, UniProt P59902).
T2 construct: Relaxant responses mediated via P2Y receptors were examined in guinea pig taenia coli; from tissue; host or cells: guinea pig taenia coli (carbachol-contracted)
T2 sequence (P59902 whole entry): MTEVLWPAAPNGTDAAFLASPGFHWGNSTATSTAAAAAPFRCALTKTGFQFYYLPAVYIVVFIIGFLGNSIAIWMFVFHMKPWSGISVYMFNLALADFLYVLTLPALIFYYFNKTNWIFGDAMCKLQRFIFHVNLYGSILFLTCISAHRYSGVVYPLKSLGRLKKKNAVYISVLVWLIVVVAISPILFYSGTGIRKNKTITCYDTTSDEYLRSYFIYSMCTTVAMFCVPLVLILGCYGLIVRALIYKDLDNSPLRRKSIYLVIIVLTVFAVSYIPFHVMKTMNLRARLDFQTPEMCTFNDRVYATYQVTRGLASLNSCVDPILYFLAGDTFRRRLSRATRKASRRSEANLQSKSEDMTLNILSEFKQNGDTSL
Description: Relaxation of carbachol-contracted guinea pig taenia coli. The settings on record: for activity/potency in words, taenia coli: guinea pig taenia coli. An excerpt:
(§1) Muscular relaxation/contraction: Relaxant responses mediated via P2Y receptors were examined in guinea pig taenia coli, rabbit aorta, and rabbit mesenteric artery, as described by Hoyle et al. (Br. J. Pharmacol., 107, 367-374 (1992a)), Burnstock et al., (Br. J. Pharmacol., 90, 383-391 (1987a)), and Rubino et al., (Eur. J. Pharmacol., 212, 237-240 (1992)). Contractile responses mediated via P2X receptors were examined in the guinea pig urinary bladder and vas deferens, and rabbit saphenous artery, also using standard methods (see Hoyle et al., supra., 1992; Hoyle et al., Br. J. Pharmacol., 99, 617-621 (1990); and Burnstock et al., Br. J. Pharmacol., 90, 111-120 (1987b)).
Muscular relaxation assays were performed as recited in Example 3. […] All curves are the mean of two determinations except for 5'-ATP (n=38), 2-hexylthio-ATP (n=4), 2-(5-hexenyl)thio-ATP (n=3), and 2-(2-4-nitrophenylethyl)thio-AMP (n=5). […] The pD2 value for 2-methylthio-ATP is 8.0±0.15, as reported by Hoyle et al., in Receptor Data for Biological Experiments, (H. N. Doods and J. C. A. Van Meel, eds., 1992b) at pp. 54-61.
Phospholipase C activity and muscle relaxation/contraction effects were assessed using the methods recited in Example 3. In FIGS. 10-12, which present the result of assays of phospholipase C activity in turkey erythrocyte membranes, the x-axis is marked in units of the log of the molar concentration of the putative P2Y receptor agonist tested and the y-axis is marked in units of the percentage of maximum production of [^3 H]-inositol phosphate generated. In FIG. 13, the x-axis is marked in units of the negative log of the molar concentration of applied putative P2Y receptor agonists and the y-axis is marked in units of the percentage relaxation of the 50 nM carbachol-induced contraction of guinea pig taenia coli. In FIG. 14, the x-axis is also marked in units of the negative log of the molar concentration of applied putative P2Y receptor agonists and the y-axis is marked in units of the percentage relaxation of the 1 μM noradrenalin-induced contraction of rabbit aorta endothelium. In FIGS. 15-16, the x-axis is marked in units of the negative log of the molar concentration of applied putative p^2X receptor agonists and the y-axis is marked in units of the percentage contraction relative to a standard dose of KCl (i.e., 60 mM), as assessed in guinea pig isolated urinary bladder detrussor muscle (FIG. 15) and guinea pig isolated vas deferens (FIG. 16).

The subject of test [3] is P2Y receptor (aorta endothelium). Description: Relaxation of noradrenalin-contracted rabbit aorta. The settings on record: rabbit aorta; log molar units.
The target of test [4] is P2Y receptor (mesenteric artery). Description: Relaxation of rabbit mesenteric artery. To be noted: log molar units.
In test [5] the target is T3, P2X receptor (saphenous artery) (Oryctolagus cuniculus, UniProt G1U3D6).
T3 construct: and rabbit saphenous artery; from tissue; host or cells: rabbit saphenous artery
T3 sequence (G1U3D6 1-399): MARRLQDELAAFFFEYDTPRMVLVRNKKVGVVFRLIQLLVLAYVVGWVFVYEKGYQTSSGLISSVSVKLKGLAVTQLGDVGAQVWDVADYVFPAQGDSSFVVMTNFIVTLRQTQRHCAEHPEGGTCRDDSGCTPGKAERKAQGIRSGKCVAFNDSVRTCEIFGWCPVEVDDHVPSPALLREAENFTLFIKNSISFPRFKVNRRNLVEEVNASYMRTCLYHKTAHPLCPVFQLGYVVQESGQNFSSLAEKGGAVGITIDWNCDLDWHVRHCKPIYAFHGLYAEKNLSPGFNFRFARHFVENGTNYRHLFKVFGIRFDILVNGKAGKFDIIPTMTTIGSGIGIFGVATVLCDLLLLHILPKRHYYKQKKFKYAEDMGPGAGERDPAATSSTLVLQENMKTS
Description: Contraction of rabbit saphenous artery. The settings on record: rabbit saphenous artery; 10 μM; read-out: response at 10 μM relative to the contraction produced by 1 μM α,MeATP, saph. artery.
From the text: as §1
^c For the saphenous artery, the percentages in brackets are response
at 10 μM relative to the contraction produced by 1 μM α,MeATP
ATP in this assay is very weak (EC50 =
1.78 mM). The highest concentrations of the analogues tested were 3-30

The target of test [6] is T4, adenylyl cyclase linked P2Y receptor (C6 rat glioma cells) (Rattus norvegicus, UniProt Q9EPX4).
T4 construct: endogenous in cells; host or cells: C6 rat glioma cells
T4 sequence (Q9EPX4 whole entry): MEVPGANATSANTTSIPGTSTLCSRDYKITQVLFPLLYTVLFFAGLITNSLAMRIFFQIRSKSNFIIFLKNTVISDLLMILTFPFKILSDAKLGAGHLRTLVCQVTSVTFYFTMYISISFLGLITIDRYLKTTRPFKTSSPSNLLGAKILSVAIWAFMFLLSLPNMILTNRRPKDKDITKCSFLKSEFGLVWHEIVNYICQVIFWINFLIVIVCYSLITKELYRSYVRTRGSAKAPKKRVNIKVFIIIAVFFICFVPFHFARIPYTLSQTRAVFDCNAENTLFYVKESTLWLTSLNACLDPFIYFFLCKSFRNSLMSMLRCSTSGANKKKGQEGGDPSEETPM
Nature of the test: Inhibition of adenylyl cyclase in C6 rat glioma cells. Format: cell-based. To be noted: for IC50: C6 rat glioma cells, 10 μM isoproterenol, read-out: K0.5 values (in nM) for inhibition of adenylyl cyclase in C6 cells; for selectivity for the adenylyl cyclase linked receptor, in words: versus phospholipase C linked receptor; for selectivity for the adenylyl cyclase linked (C6 cell) receptor: versus phospholipase C linked turkey erythrocyte receptor. The method, then: This example illustrates the inhibition of adenylyl cyclase activity in C6 rat glioma cells, as a function of the presence of certain ATP analogs in the medium in which the C6 cells were cultured.
Cells were labelled by incubation for 2 hours in the presence of 1 to 2 mCi of tritiated adenine/ml in the medium. Cells were washed twice with HEPES (20 mM, pH 7.5)-buffered Eagle's medium and then preincubated for 10 minutes at 37° C. with fresh medium containing 200 μM 3-isobutyl-1-methylxanthine. Agonist incubations were initiated by the simultaneous addition of 10 μM isoproterenol and various concentrations of nucleotides. The reactions were stopped after 10 minutes of aspiration of the nucleotide-containing medium and addition of 1 ml of ice-cold 5% trichloroacetic acid.

Test [7] relates to P2X and P2Y receptors. Nature of the test: Overall activity in the seven P2X and P2Y preparations.
Test [8] deals with T5, P2X receptor (vas deferens) (Cavia porcellus, UniProt A0A286XVA9).
T5 sequence (A0A286XVA9 1-399): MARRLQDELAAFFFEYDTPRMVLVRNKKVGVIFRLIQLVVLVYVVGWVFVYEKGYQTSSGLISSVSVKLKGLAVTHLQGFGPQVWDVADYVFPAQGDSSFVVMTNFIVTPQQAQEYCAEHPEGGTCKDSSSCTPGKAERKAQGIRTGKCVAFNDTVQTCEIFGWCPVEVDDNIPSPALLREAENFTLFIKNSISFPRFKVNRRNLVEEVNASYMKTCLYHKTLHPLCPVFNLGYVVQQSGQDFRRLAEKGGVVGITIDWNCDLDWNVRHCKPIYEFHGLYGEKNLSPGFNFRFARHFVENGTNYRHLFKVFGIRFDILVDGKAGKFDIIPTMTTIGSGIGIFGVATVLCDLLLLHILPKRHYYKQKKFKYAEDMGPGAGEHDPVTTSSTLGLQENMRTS
Nature of the test: Contraction of guinea pig isolated vas deferens.

Test [9] addresses T6, P2X receptor (urinary bladder) (Cavia porcellus, UniProt A0A286XVA9).
T6 construct: guinea pig isolated urinary bladder detrussor muscle; from tissue; host or cells: guinea pig isolated urinary bladder detrusor muscle
Description: Contraction of guinea pig isolated urinary bladder detrussor muscle. To be noted: guinea pig urinary bladder.

The mark [10] stands for this setting: turkey erythrocyte membranes, mean ± S.E.M. for at least 2 determinations, read-out: phosphatidyl inositol metabolism (K0.5, nM) erythrocyte.
The mark [11] stands for this setting: turkey erythrocyte membranes, read-out: K0.5.

Values joined by “and” are separate entries in the source; they are usually repeats but may differ in a detail not shown here. Equal values may be shown once. Read-outs that look alike come from different tables or passages of the source.

T1 sequence (P49652 whole entry): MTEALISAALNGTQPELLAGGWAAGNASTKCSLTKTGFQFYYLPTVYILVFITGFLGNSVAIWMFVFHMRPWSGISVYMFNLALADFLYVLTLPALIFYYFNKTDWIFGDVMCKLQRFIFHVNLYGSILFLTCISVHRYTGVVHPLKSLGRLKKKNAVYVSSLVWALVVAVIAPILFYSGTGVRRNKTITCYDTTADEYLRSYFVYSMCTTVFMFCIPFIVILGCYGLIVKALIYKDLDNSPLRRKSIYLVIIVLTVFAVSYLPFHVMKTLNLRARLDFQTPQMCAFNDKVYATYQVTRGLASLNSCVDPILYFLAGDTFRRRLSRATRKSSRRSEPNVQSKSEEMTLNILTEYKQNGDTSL

On to `Nc1nc(SCCc2ccc([N+](=O)[O-])cc2)nc2c1ncn2[C@@H]1O[C@H](COP(=O)(O)OP(=O)(O)OP(=O)(O)O)[C@@H](O)[C@H]1O` [2-(2-p-Nitrophenylethyl)-thio-ATP, 2[2-(p-Nitrophen)ethylthio]adenosine 5'-triphosphate], for which, in test [1] (turkey erythrocyte membranes), the “activity/potency in words, turkey erythrocyte” value was “at least two orders of magnitude more potent”. Also, the EC50 in test [1] (setting [10]) is 12 ± 4 nM; in [1] (setting [11]), 5 to 30 nM; in test [2] it was 31.6 nM. The “relaxation pD2, aorta” value in test [3] turned out to be 6.2. Further, the “relaxation pD2, mes. artery” value in test [4] amounted to 7.0. Moreover, the activation at 10 µM in [5] was determined as 2.6%. Also, in [6], the IC50 was 1 ± 0.4 nM. In [6], the “selectivity for the adenylyl cyclase linked receptor, in words” value is on record as “only moderate selectivity for C6 cell receptors”.

Take `C=CCCCCSc1nc(N)c2ncn([C@@H]3O[C@H](COP(=O)(O)OP(=O)(O)O)[C@@H](O)[C@H]3O)c2n1` [2-(5-Hexenyl)thio-ADP, 2-(5-hexenylthio)-adenosine 5'-diphosphate]: the EC50 in test [1] (setting [10]) is 6.8 ± 3 nM; in test [1] (setting [11]) it was 4 nM; in test [2], 3.63 nM. For the same compound, the IC50 in test [6] worked out at 0.07 ± 0.02 nM. In addition, the “selectivity for the adenylyl cyclase linked receptor, in words” value in test [6] is recorded as “approximately the same degree of selectivity”.

For `C=CCCCCSc1nc(N)c2ncn([C@@H]3O[C@H](COP(=O)(O)O)[C@@H](O)[C@H]3O)c2n1` [2-(5-Hexenyl)thio-AMP, 2-(5-hexenylthio)adenosine 5'-monophosphate], in test [1] (relative to corresponding triphosphate), the “fold less potent than the corresponding triphosphate, turkey erythrocyte” value was 33 -fold. Further, the EC50 is 328 ± 43 nM in [1] (setting [10]) and 1000 nM in [2]. Further, the “relaxation pD2, aorta” value in [3] stood at 7.0. Further, in test [4], the “relaxation pD2, mes. artery” value is 6.3. In addition, the IC50 in test [6] is 2 ± 0.18 nM.

For the compound `C=CCCCCSc1nc(N)c2ncn([C@@H]3O[C@H](COP(=O)(O)OP(=O)(O)OP(=O)(O)O)[C@@H](O)[C@H]3O)c2n1` [2-(S-Hexenyl)thio-ATP, 2-(5-hexenylthio)adenosine 5'-triphosphate], the “activity/potency in words, turkey erythrocyte” value in test [1] (turkey erythrocyte membranes) is listed as “at least two orders of magnitude more potent”. The EC50 is 10 ± 4 nM in test [1] (setting [10]); 5 to 30 nM and 10 nM in test [1] (setting [11]); 12.6 nM in [2]. Also, the “activity/potency in words, taenia coli” value in [2] is “significantly more potent than ATP itself, at least by one order of magnitude”. For the same compound, the “relaxation pD2, mes. artery” value in test [4] amounted to 7.0. In test [6], the IC50 came to 0.12 ± 0.06 nM.

Consider `CCCCCCSc1nc(N)c2ncn([C@@H]3O[C@H](COP(=O)(O)OP(=O)(O)OP(=O)(O)O)[C@@H](O)[C@H]3O)c2n1` [2-Hexylthio-ATP, 2-hexylthio-ATP], for which the “activity/potency in words, turkey erythrocyte” value in [1] (turkey erythrocyte membranes) was “at least two orders of magnitude more potent”. Moreover, the EC50 in test [1] (setting [10]) was 5 ± 1 nM. Besides, in [1] (setting [11]), the EC50 was 5 to 30 nM. In test [2], the EC50 was 31.6 nM and the “activity/potency in words, taenia coli” value is “significantly more potent than ATP itself, at least by one order of magnitude”. Further, in [3], the “relaxation pD2, aorta” value is on record as 6.7. Also, the “relaxation pD2, mes. artery” value in test [4] is recorded as 6.7. Besides, in test [6], the IC50 stood at 0.03 ± 0.005 nM and the “selectivity for the adenylyl cyclase linked (C6 cell) receptor” value is 170 -fold.

For `Nc1ncnc2c1ncn2[C@@H]1O[C@@H]2COP(=O)(OP(=O)(O)CP(=O)(O)O)O[C@H]2[C@H]1O` (stereo partly drawn) [3',5'-Cyclic-β,γ-methylene adenosine 5'-triphosphate], the EC50 in [1] (at 10^-5 M, read-out: phosphatidyl inositol metabolism (K0.5) erythrocyte, class symbol) is over 10000 nM. Further, the “overall activity in words, all preparations” value in test [7] (listed as Cyclized β,γ-methylene ATP) was “without effect in all seven types of preparation tested”; in test [7] (listed as β,γ-methylene-adenosine-3',5'-cyclic triphosphate) it was “greatly reduce or abolish activity within most P2X and P2Y preparations”.

For the compound `Nc1ncnc2c1ncn2[C@@H]1O[C@H](COP(=O)(O)OP(=O)(O)O)[C@@H](O)[C@H]1O` [ADP, adenosine 5'-diphosphate, reference compound], the EC50 was 3160 nM in test [1] (K0.5, turkey erythrocyte membranes, read from graph) and 8000 ± 2000 nM in test [1] (setting [10]). In addition, the “fold less potent than ATP, turkey erythrocyte” value in test [1] (relative to ATP) was 3 -fold. Also, in [2], the “activity/potency in words, taenia coli” value is “equipotent to ATP”. The “relaxation pD2, aorta” value in test [3] is 5.2. Also, in test [4], the “relaxation pD2, mes. artery” value is reported as 5.2. In addition, in [8], the “activity/potency in words, vas deferens” value is listed as “less potent than ATP”. Further, the “activity/potency in words, bladder” value in [9] is given as “equipotent with ATP”. Further, the “selectivity for the adenylyl cyclase linked (C6 cell) receptor” value in test [6] was 120 -fold.

`O=P(O)(O)OP(=O)(O)OP(=O)(O)OC[C@H]1O[C@@H](n2cnc3c2ncn2ccnc32)[C@H](O)[C@@H]1O` [N1,N^6 -etheno-ATP, reference compound]: the EC50 in test [1] (setting [10]) is over 100000 nM. In addition, in [8], the “activity/potency in words, vas deferens” value was “inactive in the vas deferens”. Also, in test [9], the “activity/potency in words, bladder” value was “limited activity in the urinary bladder”. In addition, the “overall activity in words, all preparations” value in test [7] was “greatly reduce or abolish activity within most P2X and P2Y preparations”.

(Values after patent US5620676A, “Biologically active ATP analogs” (priority 1995, dated 1997).)
